The values below come from publication PMC11873611 (Acta Pharmaceutica Sinica. B, 2024).

The target of assay [1] is T1, PGAM5 (Homo sapiens, UniProt Q96HS1, C168A).
T1 sequence (Q96HS1 22-289 C168A): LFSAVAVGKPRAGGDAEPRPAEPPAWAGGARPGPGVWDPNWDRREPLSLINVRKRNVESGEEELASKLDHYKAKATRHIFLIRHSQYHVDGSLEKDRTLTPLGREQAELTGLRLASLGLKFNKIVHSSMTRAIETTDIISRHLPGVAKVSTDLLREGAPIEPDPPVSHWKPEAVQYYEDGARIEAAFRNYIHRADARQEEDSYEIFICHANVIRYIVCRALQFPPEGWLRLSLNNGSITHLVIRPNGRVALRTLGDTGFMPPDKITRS
In words: in vitro PGAM5 phosphatase assay. The class given is biochemical.

For assay [2], the target named is T2, PGAM5 (Homo sapiens, UniProt Q96HS1).
T2 sequence (Q96HS1 22-289): T1 sequence (Q96HS1 22-289 C168A) with A147C
The experiment in a line: SPR. Format: binding.

The target in assay [3] is T3, PGAM5 (Homo sapiens, UniProt Q96HS1, C229A).
T3 sequence (Q96HS1 22-289 C229A): T1 sequence (Q96HS1 22-289 C168A) with A147C, C208A
The experiment in a line: in vitro PGAM5 phosphatase assay. Format: biochemical.

For assay [4], the target named is T4, PGAM5 (Mus musculus, UniProt Q8BX10).
T4 sequence (Q8BX10 1-288): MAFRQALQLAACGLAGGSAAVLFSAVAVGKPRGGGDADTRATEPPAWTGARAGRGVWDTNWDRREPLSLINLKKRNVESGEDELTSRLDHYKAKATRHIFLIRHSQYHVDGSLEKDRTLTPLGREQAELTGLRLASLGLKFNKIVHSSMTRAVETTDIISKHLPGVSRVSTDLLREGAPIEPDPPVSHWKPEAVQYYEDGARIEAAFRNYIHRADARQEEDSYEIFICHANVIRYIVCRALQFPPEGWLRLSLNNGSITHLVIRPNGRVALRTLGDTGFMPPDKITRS
The experiment in a line: DARTS, CETSA and SIP target engagement in BMDMs. The class given is cell-based.

Assay [5] concerns the target T2, PGAM5. The experiment in a line: SPR. The class given is binding. This is another data set of the same source.

SMILES strings stand for the structures. Where a chain is given by its changes, count along the chain named.

As for `O=C1O[C@H]2[C@@H]3OC(=O)c4cc(O)c(O)c(O)c4-c4c(O)c(O)c5oc(=O)c6c(c(O)c(O)c7oc(=O)c4c5c76)-c4c(cc(O)c(O)c4O)C(=O)OC[C@H]3OC(O)[C@@H]2OC(=O)c2cc(O)c(O)c(O)c2-c2c1cc(O)c(O)c2O` (mixture of isomers) [punicalagin], the “in vitro PGAM5 phosphatase assay (phosphopeptide, BIOMOL Green)” value at PGAM5 [1] and on PGAM5 [3] was “punicalagin still inhibited the phosphatase activity of PGAM5 C168A or C229A protein mutant” each time. The Kd (in general, a measure of binding affinity in units of concentration) at PGAM5 [2] is roughly 0.3 nM. Besides, the “DARTS, CETSA and SIP target engagement in BMDMs” value on PGAM5 [4] is “punicalagin significantly restrained the proteolysis of PGAM5 by pronase, further supporting that punicalagin could bind to PGAM5 in BMDMs”.
As for `O=C1OC[C@H]2OC(O)[C@H](O)[C@@H](O)[C@@H]2OC(=O)c2cc(O)c(O)c(O)c2-c2c(O)c(O)c3oc(=O)c4c(c(O)c(O)c5oc(=O)c2c3c54)-c2c1cc(O)c(O)c2O` (mixture of isomers) [punicalin], the “SPR (Fig. S9L and S9M)” value on PGAM5 [5] is “there was a similar direct interaction between punicalin and ΔN21 PGAM5 or ΔN90 PGAM5 compared with punicalagin”.
